Here are results for 40 compounds from patent publication US8883793B2, “Tubulin inhibitors and methods of using the same” (Development Center for Biotechnology, priority 2010, dated 2014).

The experiment has as its system KB cell. The experiment in a line: MTS assay, growth inhibition of KB cells. Particulars: Homo sapiens, at 10 μM concentration, incubated for 72 h, read-out: Inhibition rate (%) (growth inhibition rate of MTS assay). Type of experiment: cell-based. As for the experimental part: MTS assay was performed in determining the growth inhibition of cancer cells. MTS ((3-(4,5-dimethylthiazol-2-yl)-5-(3-carboxymethoxyphenyl)-2-(4-sulfophenyl)-2H-tetrazolium)), in the presence of phenazine methosulfate (PMS) and reductases, produces a formazan product that has an absorbance maximum at 490-500 nm. MTS assays (and closely related MTT assay) are commonly used to measure cell viabilities or survivals.
Briefly, KB/Hela, NCI-H460, A375, Colo205, HCT-116, U937, MCF-7, MDA-MB-231, A549, H1975 cells were seeded into 96-well plate at 4000, 4000, 2000, 2000, 2000 cells/well. After 24 h for attachment, test compound was added into each well and incubated for 72 h. A total of 20 μl of MTS reaction reagent containing the MTS (Promega, Madison, Wis.) and PMS in a ratio of 20:1 was added into each well to react with dehydrogenase enzyme in survival cells. After 3 h, the absorbance at 490 nm was monitored using Emax precision microplate reader (Molecular Devices, Sunnyvale, Calif.).
The growth inhibition rate of MTS assay at KB cell of these compounds (at 10 μM concentration) are list in Table 5.
For orientation: Tetrazolium dyes change colour on reduction, which living cells bring about.

As a reminder, the inhibition is the percentage by which the read-out fell short of the control. For the compound `Cc1ccc(CCC(=O)Nc2ccc(-c3ccccc3)cn2)s1` [Compound 114, 3-(5-Methyl-thiophen-2-yl)-N-(5-phenyl-pyridin-2-yl)-propionamide], the inhibition at 10 µM came out at 93.4%.

With `O=C(CCc1ccccc1)Nc1ncc(Sc2ccccc2)s1` [Compound 67, 3-Phenyl-N-(5-phenylsulfanyl-thiazol-2-yl)-propionamide], the inhibition at 10 µM was 96.6%.

In the case of `COc1ccc(Cc2cnc(NC(=O)CCc3ccc(C)o3)s2)cc1OC` [Compound 31, N-[5-(3,4-Dimethoxy-benzyl)-thiazol-2-yl]-3-(5-methyl-furan-2-yl)-propionamide], the inhibition at 10 µM was found to be 95.8%.

Turning to `COc1cccc(CCC(=O)Nc2ncc(Cc3ccc(C(F)(F)F)cc3)s2)c1` [Compound 48, 3-(3-Methoxy-phenyl)-N-[5-(4-trifluoromethyl-benzyl)-thiazol-2-yl]-propionamide], the inhibition at 10 µM was 95.3%.

For `O=C(Nc1ncc(-c2ccccc2)cn1)OCc1ccccc1` [Compound 108, (5-Phenyl-pyrimidin-2-yl)-carbamic acid benzyl ester], the inhibition at 10 µM worked out at 96.9%.

In the case of `Cc1ccc(CCC(=O)Nc2cnc(-c3ccccc3)cn2)o1` [Compound 122, 3-(5-Methyl-furan-2-yl)-N-(5-phenyl-pyrazin-2-yl)-propionamide], the inhibition at 10 µM was found to be 80.8%.

`O=C(CCc1ccccc1)Nc1ncc(/C=C/c2ccccc2)cn1` [Compound 97, 3-Phenyl-N-(5-styryl-pyrimidin-2-yl)-propionamide]: the inhibition at 10 µM turned out to be 52.7%.

In the case of `O=C(CCc1cccnc1)Nc1ncc(Cc2ccc(C(F)(F)F)cc2)s1` [Compound 46, 3-Pyridin-3-yl-N-[5-(4-trifluoromethyl-benzyl)-thiazol-2-yl]-propionamide], the inhibition at 10 µM was found to be 96%.

On to `O=C(CCc1ccc(F)cc1)Nc1ncc(Cc2ccc(C(F)(F)F)cc2)s1` [Compound 45, 3-(4-Fluoro-phenyl)-N-[5-(4-trifluoromethyl-benzyl)-thiazol-2-yl]-propionamide], for which the inhibition at 10 µM stood at 94%.

For the compound `O=C(CCc1ccccc1)Nc1ncc(SCc2ccccc2)s1` [Compound 75, N-(5-Benzylsulfanyl-thiazol-2-yl)-3-phenyl-propionamide], the inhibition at 10 µM turned out to be 82.5%.

Take `COc1cc(Cc2cnc(NC(=O)CCc3cccnc3)s2)ccc1OC(=O)OCc1ccccc1` [Compound 42, Carbonic acid benzyl ester 2-methoxy-4-[2-(3-pyridin-3-yl-propionylamino)-thiazol-5-ylmethyl]-phenyl ester]: the inhibition at 10 µM was 91.2%.

`O=C(CCc1ccccc1)Nc1ccc(-c2ccccc2)cn1` [Compound 110, 3-Phenyl-N-(5-phenyl-pyridin-2-yl)-propionamide]: the inhibition at 10 µM is 97%.

Turning to `COc1cccc(CCC(=O)Nc2ncc(Cc3c(F)c(F)c(F)c(F)c3F)s2)c1` [Compound 35, 3-(3-Methoxy-phenyl)-N-(5-pentafluorophenylmethyl-thiazol-2-yl)-propionamide], the inhibition at 10 µM was determined as 90.4%.

Turning to `O=C(CCc1cccnc1)Nc1ncc(Cc2ccc(-c3ccccc3)cc2)s1` [Compound 40, N-(5-Biphenyl-4-ylmethyl-thiazol-2-yl)-3-pyridin-3-yl-propionamide], the inhibition at 10 µM was 58.8%.

As to `O=C(CCc1ccccc1)Nc1ccc(SCc2ccccc2)cn1` [Compound 86, N-(5-Benzylsulfanyl-pyridin-2-yl)-3-phenyl-propionamide], the inhibition at 10 µM is 92.8%.

With `O=C(/C=C/c1ccccc1)Nc1ncc(Cc2ccccc2)s1` [Compound 3, N-(5-Benzyl-thiazol-2-yl)-3-phenyl-acrylamide], the inhibition at 10 µM stood at 94.3%.

As to `Cc1ccc(CCC(=O)Nc2ncc(/C=C/c3ccccc3)cn2)o1` [Compound 95, 3-(5-Methyl-furan-2-yl)-N-(5-styryl-pyrimidin-2-yl)-propionamide], the inhibition at 10 µM turned out to be 93.6%.

As to `COc1ccc(CCC(=O)Nc2ncc(Cc3ccc(OC)c(OC)c3)s2)cc1` [Compound 20, N-[5-(3,4-Dimethoxy-benzyl)-thiazol-2-yl]-3-(4-methoxy-phenyl)-propionamide], the inhibition at 10 µM came to 93.4%.

As to `COc1cccc(CCC(=O)Nc2ncc(Cc3ccc4ccccc4c3)s2)c1` [Compound 38, 3-(3-Methoxy-phenyl)-N-(5-naphthalen-2-ylmethyl-thiazol-2-yl)-propionamide], the inhibition at 10 µM amounted to 94.2%.

With `O=C(/C=C/c1ccccc1)Nc1ncc(/C=C/c2ccccc2)cn1` [Compound 96, 3-Phenyl-N-(5-styryl-pyrimidin-2-yl)-acrylamide], the inhibition at 10 µM was found to be 96.8%.

As to `O=C(CCc1ccccc1)Nc1ncc(Cc2c(F)c(F)c(F)c(F)c2F)s1` [Compound 34, N-(5-Pentafluorophenylmethyl-thiazol-2-yl)-3-phenyl-propionamide], the inhibition at 10 µM came out at 92.8%.

In the case of `Cc1ccc(CCC(=O)Nc2ncc(-c3ccccc3)n2C)o1` [Compound 91, 3-(5-Methyl-furan-2-yl)-N-(1-methyl-5-phenyl-1H-imidazol-2-yl)-propionamide], the inhibition at 10 µM turned out to be 96%.

In the case of `COc1ccc(CCC(=O)Nc2ncc(Cc3ccc(OC)cc3)s2)cc1` [Compound 15, N-[5-(4-Methoxy-benzyl)-thiazol-2-yl]-3-(4-methoxy-phenyl)-propionamide], the inhibition at 10 µM was found to be 93%.

For the compound `O=C(Nc1ncc(Cc2ccc3c(c2)OCO3)s1)OCc1ccccc1` [Compound 33, (5-Benzo[1,3]dioxol-5-ylmethyl-thiazol-2-yl)-carbamic acid benzyl ester], the inhibition at 10 µM turned out to be 92.4%.

As for `Cc1ccc(CCC(=O)Nc2ncc(Sc3ccccc3)s2)o1` [Compound 72, 3-(5-Methyl-furan-2-yl)-N-(5-phenylsulfanyl-thiazol-2-yl)-propionamide], the inhibition at 10 µM is 60%.

As for `O=C(CCc1cccc(F)c1)Nc1ncc(Cc2ccc3ccccc3c2)s1` [Compound 37, 3-(3-Fluoro-phenyl)-N-(5-naphthalen-2-ylmethyl-thiazol-2-yl)-propionamide], the inhibition at 10 µM came to 94.4%.

For `O=C(CCc1cccnc1)Nc1ncc(Sc2ccccc2)s1` [Compound 66, N-(5-Phenylsulfanyl-thiazol-2-yl)-3-pyridin-3-yl-propionamide], the inhibition at 10 µM was determined as 93.3%.

Turning to `O=C(CCc1ccc(F)cc1)Nc1ncc(Cc2ccc(-c3ccccc3)cc2)s1` [Compound 39, N-(5-Biphenyl-4-ylmethyl-thiazol-2-yl)-3-(4-fluoro-phenyl)-propionamide], the inhibition at 10 µM turned out to be 94%.

With `COc1cccc(CCC(=O)Nc2ncc(Cc3ccc(OC(=O)OCc4ccccc4)c(OC)c3)s2)c1` [Compound 43, Carbonic acid benzyl ester 2-methoxy-4-{2-[3-(3-methoxy-phenyl)-propionylamino]-thiazol-5-ylmethyl}-phenyl ester], the inhibition at 10 µM is 95.6%.

`O=C(CCc1cccnc1)Nc1ncc(Cc2ccc(F)c(F)c2)s1` [Compound 27, N-[5-(3,4-Difluoro-benzyl)-thiazol-2-yl]-3-pyridin-3-yl-propionamide]: the inhibition at 10 µM came to 91.2%.

Regarding `COc1ccc(Cc2cnc(NC(=O)CCc3ccncc3)s2)cc1` [Compound 16, N-[5-(4-Methoxy-benzyl)-thiazol-2-yl]-3-pyridin-4-yl-propionamide], the inhibition at 10 µM came to 62%.

In the case of `O=C(CCc1ccccc1)Nc1ncc(Cc2ccc3ccccc3c2)s1` [Compound 22, N-(5-Naphthalen-2-ylmethyl-thiazol-2-yl)-3-phenyl-propionamide], the inhibition at 10 µM stood at 95.6%.

For the compound `COc1ccc(Oc2cnc(NC(=O)CCc3ccc(C)o3)s2)cc1` [Compound 74, N-[5-(4-Methoxy-phenoxy)-thiazol-2-yl]-3-(5-methyl-furan-2-yl)-propionamide], the inhibition at 10 µM was found to be 96.9%.

On to `O=C(CCc1cccnc1)Nc1ncc(Cc2ccc3c(c2)OCO3)s1` [Compound 8, N-(5-Benzo[1,3]dioxol-5-ylmethyl-thiazol-2-yl)-3-pyridin-3-yl-propionamide], for which the inhibition at 10 µM is 90.6%.

As to `Cc1cc(-c2ccc(N(C)C)cc2)cnc1NC(=O)C(C)Cc1ccccc1` (stereo not shown) [Compound 121, N-[5-(4-Dimethylamino-phenyl)-3-methyl-pyridin-2-yl]-2-methyl-3-phenyl-propionamide], the inhibition at 10 µM was 93.5%.

Take `O=C(CCc1ccc(F)cc1)Nc1ncc(Sc2ccccc2)s1` [Compound 65, 3-(4-Fluoro-phenyl)-N-(5-phenylsulfanyl-thiazol-2-yl)-propionamide]: the inhibition at 10 µM is 96.3%.

As to `COc1ccc(Cc2cnc(NC(=O)CCc3ccc(F)cc3)s2)cc1OC` [Compound 18, N-[5-(3,4-Dimethoxy-benzyl)-thiazol-2-yl]-3-(4-fluoro-phenyl)-propionamide], the inhibition at 10 µM is 96.6%.

Regarding `COc1ccc(-c2cnc(NC(=O)CCc3ccc(C)o3)nc2)c(OC)c1` [Compound 107, N-[5-(2,4-Dimethoxy-phenyl)-pyrimidin-2-yl]-3-(5-methyl-furan-2-yl)-propionamide], the inhibition at 10 µM came to 97%.

With `COc1cccc(CCC(=O)Nc2ncc(Sc3ccccc3)s2)c1` [Compound 68, 3-(3-Methoxy-phenyl)-N-(5-phenylsulfanyl-thiazol-2-yl)-propionamide], the inhibition at 10 µM worked out at 94.4%.

With `Cc1ccc(CCC(=O)Nc2ccc(-n3ccc4ccccc43)cn2)o1` [Compound 78, N-(5-Indol-1-yl-pyridin-2-yl)-3-(5-methyl-furan-2-yl)-propionamide], the inhibition at 10 µM turned out to be 93.9%.
